In patent publication US5128346A, “Derivatives of D-glutamic acid and D-aspartic acid” (priority 1990, dated 1992):
pIC50: −log10 of the molar value. Structures can show the parent of a compound that is named as a salt. Where two headings read alike, the source gives them in different places.

Key:
[1] = test system: guinea pig acini; test: Inhibition of CCK8-stimulated amylase release from acini; type: cell-based; details: Cavia porcellus, 0.5 h, CCK8 3×10^-10 M, 37° C., 30 min
Protocol: Protocol for Amylase This assay was performed using the modified protocol of Lin et al., J. Pharmacol. Exp. Ther. 236, 734, 1986. 1. Guinea Pig Acini Preparation Guinea pig acini were prepared by the method of Bruzzone et al. (Biochem. J. 226, 621-624, 1985) as follows. Pancreas was dissected out and connective tissues and blood vessels were removed. The pancreas was cut into small pieces (2mm) by a scissor and placed in a 15 mL conical plastic tube containing 2.5 mL of Krebs Ringer HEPES (KRH) buffer plus 400 units per mL of collagenase. The composition of the KRH buffer was: HEPES, 12.5 mM: NaCl, 118 mM; KCI, 4.8 mM; CaCl2, 1 mM; […]; MgSO4, 1.2 mM; NaHCO3, 5 mM; glucose, 10 mM, pH 7.4. The buffer was supplemented with MEM vitamins, 1% MEM amino acids and 0.001% aprotinin. The tube was shaken by hand until the suspension appeared homogeneous, usually 5 to 6 min. 5 mL of the KRH, without collagenase and with 0.1% BSA, were added and the tube was centrifuged at 50×g for 35 sec. The supernatant was discarded and 6 mL of the KRH were added to the cell pellet. […] This wash procedure was repeated once. The cell pellet from the last centrifugation step was then resuspended in 15 mL of KRH containing 0.1% BSA. The contents were filtered through a dual nylon mesh, size 275 and 75 micrometers. The filtrate, containing the acini, were centrifuged at 50×for 3 min. The acini were then resuspended in 5 mL of KRH-BSA buffer for 30 min at 37° C., under 100% O2, with a change of fresh buffer at 15 min. 2. Amylase Assay After the 30 min incubation time, the acini were resuspended in 100 volumes of KRH-BSA buffer, containing 3 microM phosphoramidon and 100 microM bestatin. […] The final assay volume was 500 microliters. Tubes were vortexed and placed in a 37° C. water bath, under 100% O2, for 30 min. Afterward, tubes were centrifuged at 10,000 g for 1 min. […] The results of this assay are […]

[2] = biological target: T1, Type-A CCK receptor (Cavia porcellus, UniProt Q63931); test: Radioligand binding, [^125 I]-BH-CCK8, Type-A CCK receptor (pancreatic membranes); set-up: species or system guinea pig
T1 construct: cortex and pancreas were removed and rinsed with ice cold saline; from tissue; host or cells: guinea pig pancreas, membranes
T1 sequence (Q63931 1-430): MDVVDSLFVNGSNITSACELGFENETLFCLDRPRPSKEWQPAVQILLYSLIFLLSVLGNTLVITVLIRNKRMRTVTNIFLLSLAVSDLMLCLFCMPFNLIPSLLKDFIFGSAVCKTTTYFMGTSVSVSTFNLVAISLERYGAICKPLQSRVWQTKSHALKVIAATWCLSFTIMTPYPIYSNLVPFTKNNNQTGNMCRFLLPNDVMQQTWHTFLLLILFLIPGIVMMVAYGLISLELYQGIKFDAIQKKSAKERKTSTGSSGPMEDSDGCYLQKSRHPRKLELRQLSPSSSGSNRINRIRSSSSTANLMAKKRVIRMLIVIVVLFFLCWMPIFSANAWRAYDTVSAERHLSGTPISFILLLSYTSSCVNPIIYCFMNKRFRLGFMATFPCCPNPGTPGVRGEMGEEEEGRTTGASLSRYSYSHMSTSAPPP
Description: (§1) CCK8 [Asp-Tyr(SO3 H)-Met-Gly-Trp-Met-Asp-Phe-NH2 ] was purchased from Beckman Instruments (Palo Alto, Ca/) and Peptide International (Louisville, Ky.). Chymostatin, L-Try-Gly, puromycin, bestatin, EGTA, HEPES and BSA were purchased from Sigma Chemical Co. (St. Louis, Mo.). [^125 I]BH-CCK8 (specific activity, 2200 Ci/mmol) and Aquasol 2 scintillation cocktail were obtained from New England Nuclear (Boston, Ma.). Male guinea pigs, 250 to 325 g, were obtained from Scientific Small Animal Laboratory and Farm (Arlington Heights, Ill.). Collagenase, 300 units per mg, was purchased from Worthington (Frehold, N.J.)
(§2) 1. Guinea Pig Cerebral Cortical and Pancreatic Membrane Preparations
(§3) Cortical and pancreatic membrances were prepared as described (Lin and Miller; J. Pharmacol. Exp. Ther. 232, 775-780, 1985). In brief, cortex and pancreas were removed and rinsed with ice cold saline. Visible fat and connective tissues were removed from the pancreas. Tissues were weighed and homogenized separately in approximately 25 mL of ice-cold 50 mM Tris-HCl buffer, pH 7.4 at 4° C., with a Brinkman Polytron for 30 sec, setting 7. The homogenates were centrifuged for 10 min at 1075×g and pellets were discarded. The supernatants were saved and centrifuged at 38,730×g for 20 min. The resultant pellets were rehomogenized in 25 mL of 50 mM Tris-HCl buffer with a Teflon-glass homogenizer, 5 up and down strokes. The homogenates were centrifuged again at 38,730×g for 20 min. Pellets were then resuspended in 20 mM HEPES, containing 1 mM EGTA., 118 mM NaCl, 5 mM MgCl2, 100 microM bestatin, 3 microM phosphoramidon, pH 7.4 at 22° C., with a Teflon-glass homogenizer, 15 up and down strokes. Resuspension volume for the cortex was 15-18 mL per gm of original wet weight and 60 mL per gm for the pancreas.
(§4) ^125 I]Bolton-Hunter CCK8, and test compounds were diluted with HEPES-EGTA-salt buffer (see above) containing 0.5% bovine serum albumin (BSA). To 1 mL Skatron polystyrene tubes were added 25 microliters of test compounds, 25 miroliters of [^125 I]BH-CCK8, and 200 microliters of membrane suspension. The final BSA concentration was 0.1%. The cortical tissues were incubated at 30° C. for 150 min and pancreatic tissues were incubated at 37° C. for 30 min. Incubations were terminated by filtration using Skatron Cell Harvester and SS32 microfiber filter mats. The specific binding of [^125 I]BH-CCK8, defined as the difference between binding in the absence and presence of 1 microM CCK8, was 85 90% of pancreas. IC50 's were determined from the Hill analysis.

[3] = biological target: T2, Type-B CCK receptor (Cavia porcellus, UniProt H0VZC5); test: Radioligand binding, [^125 I]-BH-CCK8, Type-B CCK receptor (cerebral cortical membranes); set-up: species or system guinea pig
T2 construct: cortex and pancreas were removed and rinsed with ice cold saline; from tissue; host or cells: guinea pig cerebral cortex, membranes
T2 sequence (H0VZC5 1-426): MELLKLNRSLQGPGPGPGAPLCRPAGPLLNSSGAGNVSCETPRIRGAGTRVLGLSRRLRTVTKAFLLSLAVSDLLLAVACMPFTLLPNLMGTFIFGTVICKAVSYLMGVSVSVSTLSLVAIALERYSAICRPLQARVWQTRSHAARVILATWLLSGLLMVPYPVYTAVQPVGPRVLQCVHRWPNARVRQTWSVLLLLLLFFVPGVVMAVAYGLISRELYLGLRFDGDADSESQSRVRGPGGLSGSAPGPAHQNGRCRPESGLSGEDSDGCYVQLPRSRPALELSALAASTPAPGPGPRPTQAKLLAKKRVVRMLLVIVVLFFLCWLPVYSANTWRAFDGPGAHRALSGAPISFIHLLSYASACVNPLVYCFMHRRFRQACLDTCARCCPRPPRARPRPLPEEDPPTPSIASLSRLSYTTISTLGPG
Description: as §1, §2, §3
as §4, with “The specific binding of [^125 I]BH-CCK8, defined as the difference between binding in the absence and presence of 1 microM CCK8, was 85 90% of pancreas.” left out

[4] = test system: CCK8; test: Inhibition of CCK induced gastric emptying (charcoal meal); type: in vivo; details: 100 mg/kg p.o., CCK8 80 micrograms/kg s.c.
Protocol: Inhibition Of CCK Induced Gastric Emptying
Three fasted mice were dosed (p.o.) with the test compound. CCK8 (80 micrograms/kg s.c.) was administered within 60 minutes and charcoal meal (0.1 mL of 10% suspension) was given orally 5 minutes later. The animals were sacrificed within an additional 5 minutes.
Gastric emptying, defined as the presence of charcoal within the intestine beyond the pyloric sphincter, is inhibited by CCK8. Gastric emptying observed in more than 1 or 3 mice (greater than 1) indicates antagonism of CCK8.

[5] = guinea pig pancreatic membranes, 37° C., 30 min, IC50 from Hill analysis

Row | SMILES | pIC50 [2] | pIC50 [2, 5] | pIC50 [3] | pIC50 [1] | Gastric emptying observed (mice out of three; more than 1 indicates antagonism of CCK8) [4]
1 | CCCCCN(CCCCC)C(=O)[C@@H](CCC(=O)O)NC(=O)c1cc2ccccc2[nH]1 [Example 4, N-(2,-Indolylcarbonyl)-R-Glu-N^α,N^α -di-n-pentylamide] | 7.70 | – | – | 7.66 | –
2 | CCCCCN(CCCCC)C(=O)[C@H](CCC(=O)O)NC(=O)c1cc2ccccc2[nH]1 [Example 8, N-(2'-Indolylcarbonyl)-S-Glu-N^α,N^α -di-n-pentylamide] | – | 6.70 | – | 6.23 | –
3 | CCCCCN(CCCCC)C(=O)[C@@H](CCC(=O)O)NC(=O)c1c[nH]c2ccccc12 [Example 12, N-(3'-Indolylcarbonyl)-R-Glu-N^α,N^α -di-n-penylamide] | – | 6.59 | 5.49 | 6.08 | –
4 | CCCCCN(CCCCC)C(=O)[C@@H](CCC(=O)O)NC(=O)c1cnc2ccccc2c1 [Example 15, N-(3'-Quinolylcarbonyl)-R-Glu-N^α,N^α -di-n-pentylamide] | 8.27 | – | 5.46 | 7.80 | –
5 | CCCCCN(CCCCC)C(=O)[C@@H](CC(=O)O)NC(=O)c1cc2ccccc2[nH]1 [Example 19, N-(2'-Indolylcarbonyl)-R-Asp-N^α,N^α -di-n-pentylamide] | 7.57 | – | 5.59 | 7.26 | –
6 | CCCCCN(CCCCC)C(=O)[C@@H](CCC(=O)OC)NC(=O)c1cc2ccccc2[nH]1 [Example 23, N-(2'-Indolylcarbonyl)-(γ-methyl ester)-R-Glu-di-n-pentylamide] | 7.01 | – | 5.44 | 5.89 | –
7 | CCCCCN(CCCCC)C(=O)[C@@H](CCC(=O)O)NC(=O)c1cnc2ccccc2c1 [Example 118, N-(3'-Quinolylcarbonyl)-R-Glu-N^α,N^α -di-n-pentylamideDicyclohexylamine salt] | – | – | – | – | three out of three

The next lines start with results.

Row | pIC50 [2] | pIC50 [2, 5] | pIC50 [3] | SMILES | pIC50 [1] | Gastric emptying observed (mice out of three; more than 1 indicates antagonism of CCK8) [4]
8 | 7.52 | – | 5.29 | O=C(O)CC[C@@H](NC(=O)c1cc2ccccc2[nH]1)C(=O)N(Cc1ccccc1)Cc1ccccc1 [Example 29, N-(2'-Indolylcarbonyl)-R-Glu-N^α,N^α -dibenzylamide] | 6.89 | –
9 | 7.52 | – | ~5.00 | CCCCCN(CCCCC)C(=O)[C@@H](CCC(=O)O)NC(=O)c1ccc2ncccc2c1 [Example 34, N-(6'-Quinolylcarbonyl)-R-Glu-N^α,N^α -d-n-pentylamide] | 7.28 | –
10 | 6.68 | – | 5.70 | O=C(O)CC[C@@H](NC(=O)c1cc2ccccc2[nH]1)C(=O)N(c1ccccc1)c1ccccc1 [Example 74, N-(2'-Indolylcarbonyl)-R-Glu-N^α,N^α -diphenylamide] | 5.92 | –
